Values quoted from earlier work in paper PMC8000448, “Inhibitory Effects of Schisandra Lignans on Cytochrome P450s and Uridine 5′-Diphospho-Glucuronosyl Transferases in Human Liver Microsomes” (Pharmaceutics, 2021).
Where two headings read alike, the source gives them in different places.

Experiments:
recombinant CYP3A4 [1] = conditions: recombinant CYP3A4 isoform; read-out: IC50, CYP3A-mediated midazolam 1′-hydroxylation; cited from earlier work
CYP1A2 = tested on: CYP1A2; set-up: method as in PMID 15342469; conditions: cited from earlier work
CYP2C19 = tested on: CYP2C19; set-up: method as in PMID 15342469; conditions: cited from earlier work
recombinant CYP3A4 [2] = conditions: rCYP3A4, fluorescent substrate; cited from earlier work
CYP2C9 = tested on: CYP2C9; set-up: method as in PMID 15342469; conditions: cited from earlier work
CYP3A [3] = conditions: read-out: Ki, CYP3A-mediated testosterone hydroxylation; cited from earlier work
CYP2D6 = tested on: CYP2D6; set-up: method as in PMID 15342469; conditions: cited from earlier work
recombinant CYP2C19 = tested on: recombinant CYP2C19; set-up: method as in PMID 24855828; conditions: read-out: IC50, CYP2C19-catalyzed omeprazole hydroxylation; cited from earlier work
CYP3A [4] = conditions: rats; cited from earlier work
CYP3A [5] = tested on: CYP3A; set-up: method as in PMID 15342469; conditions: read-out: IC50, CYP3A-mediated testosterone hydroxylase activity; cited from earlier work

| Molecule | IC50 (recombinant CYP3A4 [1]) | IC50 (CYP1A2) | IC50 (CYP2C19) | IC50 (recombinant CYP3A4 [2]) | IC50 (CYP2C9) | Ki (CYP3A [3]) | IC50 (CYP2D6) | IC50 (recombinant CYP2C19) | Plasma concentrations of midazolam (CYP3A [4]) | IC50 (CYP3A [5]) |
| --- | --- | --- | --- | --- | --- | --- | --- | --- | --- | --- |
| COc1cc2c(c(OC)c1OC)-c1c(cc3c(c1OC)OCO3)[C@H](OC(=O)c1ccccc1)[C@@](C)(O)[C@@H](C)C2 [gomisin G, reference compound] | 190 nM | – | – | – | – | – | – | – | – | – |
| gomisin A | 1860 nM | > 10 µM | > 10 µM | 1390 nM | > 10 µM | 1010 nM | > 10 µM | – | – | – |
| COc1cc2c(c(OC)c1OC)-c1c(cc(OC)c(OC)c1OC)C[C@H](C)[C@H](C)C2 [schisandrin A, reference compound] | – | – | – | – | – | – | – | 86.4 µM | markedly increases | – |
| gomisin B | – | > 10 µM | > 10 µM | – | > 10 µM | – | > 10 µM | – | – | 260 to 620 nM |
